The record followed here is US20100215588A1, “THERAPEUTIC DELIVERY OF INHIBITORY NUCLEIC ACID MOLECULES TO THE RESPIRATORY SYSTEM” (priority 2007, published 2010).

One series concerns A549 lung tumors. Description: A549 lung tumor growth after inhaled Nrf2 siRNA alone or with carboplatin. Particulars: lung tumor weights; siRNA 100 μg/dose by nebulizer three times a week for 4 weeks; carboplatin 30 mg/kg i.p. twice/week. The series is classed as in vivo, SCID-Beige mice. On the procedure: (§1) Tumor Xenografts: A549 cells (5×10^6) were injected into the hind leg of male athymic nude mice and the tumor was measured weekly. The tumor volumes were measured using the following formula: [length (mm)×width (mm)×width (mm)×0.52]. In the lung metastasis experiments, 2×10^6 A549-C8-luc cells were injected into SCID-Beige mice (Charles River, Mass.) intravenously.
(§2) For in vivo experiments, all siRNA compounds were chemically synthesized being stabilized by alternating 2-O′-Me modifications on both strands. The sequence of siRNA targeting human Nrf2 used for in vivo experiments is 5′-UCCCGUUUGUAGAUGACAA-3′ (sense) and 5′-UUGUCAUCUACAAACGGGA-3′ (antisense). The sequence of control siRNA targeting GFP is 5′-[…]-3′ (sense) and 5′-[…]-3′ (antisense).
For aerosol delivery of Nrf2 or GFP siRNA into lung tumors, 100 μg of siRNA duplex diluted in PBS was aerosolized using a nebulizer. Mice were given three dose of siRNA (100 μg/dose) every week, for 4 weeks, using a nebulizer. Intraperitoneal injections of carboplatin were given at a dose of 30 mg/kg body weight twice/week.
(§3) In Vivo Imaging: Animals inoculated with A549-C8-luc cells, which express a luciferase reporter gene, were anesthetized and injected intraperitoneally with 250 ul of luminescent substrate (15 mg/ml stock) D-Luciferin Firefly (Xenogen Cat# XR-1001). The animals were then imaged and analyzed by using the Xenogen IVIS Optical Imaging Device in the Johns Hopkins Oncology Center.
Statistical Analysis-Statistical comparisons were performed by Student's t-tests. A value of p<0.05 was considered statistically significant. Tumor weights and changes in tumor volume were summarized using descriptive statistics. Differences in tumor measures between treatment groups were examined using linear regression models with generalized estimating equations (GEE). The distributions of both tumor measurements were skewed, so log transformations were used.

The nature of series [1]: Qualitative distribution of REDD14Cy3.5 siRNA in lung and kidney (fluorescence analysis). The series is classed as in vivo, cynomolgus monkeys. As to the method: On Day 15 of the study, two of the available animals (101 and 102) were administered a target dose of 35 mg/kg of a mixture of I5NP and REDD14Cy3.5 (fluorescence-labelled) siRNA via an oronasal mask as a nebulized aerosol generated by the Aeroneb device. A 2.0 L/min dilution airflow was used. The total dose of siRNA administered was calculated, based on the bodyweights and measured respiratory minute volumes of the animals, and on the achieved output of the Aeroneb device using the formulation concentration of 40 mg/mL of siRNA. The administered dose was adjusted by changing the exposure times for the animals
At the time of necropsy following Treatment 2, the lungs, bronchi and trachea of animal 102 were removed from the animal. The lungs were perfused with 4% paraformaldehyde, introduced using a syringe, via the trachea and/or bronchus and stored in this fixative at ambient temperature for a period of approximately 21 hours. Following this, as much as possible of the original fixative fluid was withdrawn by syringe via the trachea/bronchus and replaced with 0.2% paraformaldehyde. The fixed lungs were analyzed for fluorescence distribution.
At the time of necropsy following Treatment 2, the right kidney of animal 102 was removed from the animal. The kidney was dissected into quarters by making one longitudinal and one transverse cut, each to pass through the hilus, and then immersed in 4% paraformaldehyde and refrigerated for approximately 21 hours. Following this, the fixing solution was changed to 0.2% paraformaldehyde and the kidney was analyzed for fluorescence distribution.
Following Treatment 2, lung and kidney samples from animal 102 were analyzed for distribution of fluorescence (from REDD14Cy3.5 siRNA). The results were considered to be qualitative.

For a further series, the system named is Nrf2. Description: ARE-Luc Nrf2-dependent reporter activity in orthotopic lung tumors, in vivo imaging. Particulars: siRNA by nebulizer; mice with A549-C8-luc lung tumors; FIG. 5. Also on record: species or system SCID-Beige mice. As to the method: as §1, §2
For aerosol delivery of Nrf2 or GFP siRNA into lung tumors, 100 μg of siRNA duplex diluted in PBS was aerosolized using a nebulizer. Mice were given three dose of siRNA (100 μg/dose) every week, for 4 weeks, using a nebulizer. […]
as §3

The next series concerns RTP801. In words: Short-term (7 day) cigarette smoking model, intralung delivery of RTP801 siRNA. Type of series: in vivo, mouse (C57BL6). As to the method:
CS-induced inflammation was induced by 7 day smoking in 2 groups of C57BL6 mice, 10 mice per group. Group 1: CS+delivery of control siRNA (REDD8) siRNA; Group 2: CS+RTP801 siRNA (REDD14). Control groups of mice were instilled with either type of siRNA but kept in room air conditions. The animals were evaluated as in the above experiment with the Knock-Out mice.
Exposure was carried out (7 h/day, 7 days/week) by burning 2R4F reference cigarettes (2.45 mg nicotine per cigarette; purchased from the Tobacco Research Institute, University of Kentucky, Lexington, Ky., USA) using a smoking machine (Model TE-10, Teague Enterprises, Davis, Calif., USA). Each smoldering cigarette was puffed for 2 s, once every minute for a total of eight puffs, at a flow rate of 1.05 L/min, to provide a standard puff of 35 cm^3. The smoke machine was adjusted to produce a mixture of sidestream smoke (89%) and mainstream smoke (11%) by burning five cigarettes at one time. Chamber atmosphere was monitored for total suspended particulates and carbon monoxide, with concentrations of 90 mg/m3 and 350 ppm, respectively.
Following exposure to CS or instillation of RTP801 expressing plasmid, the mice were anesthetized with sodium pentobarbital. […] The total number of cells in the lavage fluid was determined, and 2×10^4 cells were cytocentrifuged (Shandon Southern Products, Pittsburgh, Pa., USA) onto glass slides and stained with Wright-Giemsa stain. […]
Immunohistochemical staining of active caspase-3 assay was performed using anti-active caspase-3 antibody and the active caspase-3-positive cells were counted with a macro, using Image Pro Plus program. […]
The activity of caspase-3 activity was measured in lung tissue extracts using a fluorometric assay according to the manufacturer's instructions. […] After removal of nuclei and cellular debris, the supernatant (300 μg protein) was then incubated with the pro-fluorescent substrate at room temperature for 1 h and the fluorescence intensity was measured utilizing a Typhoon phosphoimager (Amersham Biosciences, Inc., Piscataway, N.J., USA). […]

Setting [2] is: Treatment 2, animal 102, approximately 30 minutes post-end of dosing, qualitative.

For `N.N.O=C([O-])C1(C(=O)[O-])CCC1.[Pt+2]` [Vehicle siRNA + carboplatin, carboplatin], the “Mean (SD) tumor weight” value in the series on A549 lung tumors was 495 (49.5) mg.
For the compound “REDD14Cy3.5: fluorescent-labelled (Cy3.5) REDD14, RTP801 inhibiting siRNA; sense GUGCCAACCUGAUGCAGCU, antisense AGCUGCAUCAGGUUGGCAC (Cy3.5 fluorescent label, position and strand not given here)”, in series [1] (setting [2]), the “fluorescent label in lungs” value is “detected in all sections taken from all lobes of the lungs” and the “fluorescent label in right kidney” value is recorded as “little label detected in the right kidney”. In addition, the “distribution in lung, I5NP (hybridization) and REDD14Cy3.5 (fluorescence) compared” value in series [1] (after oronasal inhalation) was “little difference in the distribution of the two test articles in lung”.
In the case of “GFP siRNA: control siRNA targeting GFP; sense 5′-GGCUACGUCCAGGAGCGCACC-3′, antisense 5′-GGUGCGCUCCUGGACGUAGCC-3′ (alternating 2'-O-methyl on both strands, starting position not given here)”, the “Mean (SD) tumor weight” value in the series on A549 lung tumors was 710 (167.93) mg.
In the case of “Nrf2 siRNA: siRNA targeting human Nrf2, alternating 2-O′-Me; sense 5′-UCCCGUUUGUAGAUGACAA-3′, antisense 5′-UUGUCAUCUACAAACGGGA-3′ (alternating 2'-O-methyl on both strands, starting position not given here)”, the “Nrf2 reporter activity in vivo” value in the series on Nrf2 is “inhibited Nrf2 reporter activity in vivo”. In addition, in the series on A549 lung tumors, the “Mean (SD) tumor weight” value is given as 802 (172.25) mg.
For the compound “REDD14: exemplary siRNA in aqueous solution directed against gene RTP801; sense GUGCCAACCUGAUGCAGCU, antisense AGCUGCAUCAGGUUGGCAC (chemistry not fully specified)”, the “RTP801 expression in the lungs” value in the series with RTP801 (50 μg siRNA instilled intranasally, FIG. 3b) was “reduction of RTP801 expression in the lungs”. Moreover, the “cigarette smoking induced apoptosis of lung septal cells (activated caspase staining, caspase 3 immunoblot)” value in the series with RTP801 (1 week of cigarette smoking, FIG. 3c) is “partially protected from cigarette smoking induced apoptosis of lung septal cells”. For the same compound, the “cigarette smoking induced inflammation (number of inflammatory bronchoalveolar lavage cells)” value in the series with RTP801 (1 week of cigarette smoking, versus control siRNA REDD8, FIG. 3a) is “partially protected from cigarette smoking induced inflammation”.
